Results as given in ChEMBL document CHEMBL4732064, “Structure-activity relationship studies of phenothiazine derivatives as a new class of ferroptosis inhibitors together with the therapeutic effect in an ischemic stroke model” (Eur J Med Chem, 2021).
Calls of active or inactive are those of the source. No cut-off for these calls is given here.

Columns and labels:
[1] = biological target: Muscarinic acetylcholine receptor M3 (Homo sapiens) (UniProt P20309); assay: Antagonist activity at CHRM3 (unknown origin) by FLIPR assay
Calu-1 [2] = assay: Inhibition of erastin-induced ferroptosis in human Calu-1 cells assessed as cell viability incubated for 48 hrs by MTT assay; assay type: functional, cell-based; settings: Calu-1, 48 h
[3] = biological target: Indoleamine 2,3-dioxygenase 1 (Homo sapiens, UniProt P14902); assay: Inhibition of IDO1 (unknown origin)
HT-1080 [4] = assay: Reduction in lipid oxidation level in erastin-induced human HT-1080 cell ferroptosis model assessed as decrease in MDA accumulation at 0.01 to 1 uM; assay type: functional; settings: dose 0.01-1 µM
[5] = biological target: Bifunctional arginine demethylase and lysyl-hydroxylase JMJD6 (Homo sapiens, UniProt Q6NYC1); assay: Inhibition of JMJD6 (unknown origin)
HT-1080 [6] = assay: Downregulation of GPX4 expression in erastin-induced human HT-1080 cell ferroptosis model at 0.01 to 1 uM after 10 hrs by Western blot analysis; assay type: functional; settings: dose 0.01-1 µM
[7] = biological target: T1, 5-hydroxytryptamine receptor 2C (Homo sapiens) (UniProt P28335); assay: Antagonist activity at HTR2C (unknown origin) by FLIPR assay
T1 sequence (whole entry): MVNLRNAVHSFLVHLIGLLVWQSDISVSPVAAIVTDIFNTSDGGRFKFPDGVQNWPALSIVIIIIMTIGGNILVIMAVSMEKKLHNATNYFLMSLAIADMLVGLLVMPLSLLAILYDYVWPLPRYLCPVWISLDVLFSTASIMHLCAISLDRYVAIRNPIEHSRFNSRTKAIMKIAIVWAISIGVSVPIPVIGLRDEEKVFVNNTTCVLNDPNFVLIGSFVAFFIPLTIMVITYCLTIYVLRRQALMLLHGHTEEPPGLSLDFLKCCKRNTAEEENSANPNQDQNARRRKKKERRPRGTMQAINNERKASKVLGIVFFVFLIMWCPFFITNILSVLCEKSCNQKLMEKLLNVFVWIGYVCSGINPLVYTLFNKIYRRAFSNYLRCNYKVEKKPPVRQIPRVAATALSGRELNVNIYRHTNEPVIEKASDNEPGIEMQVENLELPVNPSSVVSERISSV

BXPC-3 = assay: Inhibition of erastin-induced ferroptosis in human BXPC-3 cells assessed as cell viability incubated for 48 hrs by MTT assay; assay type: functional, cell-based; settings: BXPC-3, 48 h
Calu-1 [8] = assay: Antioxidant activity in erastin-induced human Calu-1 cell ferroptosis model assessed as decrease in cytosolic ROS accumulation at 0.01 to 1 uM incubated for 8 to 24 hrs by DCFH-DA staining based assay; assay type: functional; settings: dose 0.01-1 µM, time 8-24 hrs
Rattus norvegicus [9] = assay: Protective activity in Sprague-Dawley rat model of middle cerebral artery occlusion-induced ischemia-reperfusion injury assessed as reduction in MDA level at 5 mg/kg, iv measured after 24 hrs of post reperfusion […]; assay type: functional, organism-based
Rattus norvegicus [10] = assay: Protective activity in Sprague-Dawley rat model of middle cerebral artery occlusion-induced ischemia-reperfusion injury assessed as reduction in neurological score at 5 mg/kg, iv measured after 24 hrs of post reperfusion […]; assay type: functional, organism-based
HT-1080 [11] = assay: Downregulation of GPX4 expression in erastin-induced human HT-1080 cell ferroptosis model at 1 uM after 10 hrs by Western blot analysis; assay type: functional
Rattus norvegicus [12] = assay: Protective activity in Sprague-Dawley rat model of middle cerebral artery occlusion-induced ischemia-reperfusion injury assessed as prevention of reperfusion injury at 5 mg/kg, iv measured after 24 hrs of post reperfusion by TTC staining based assay; assay type: functional, organism-based
Calu-1 [13] = assay: Antioxidant activity in erastin-induced human Calu-1 cell ferroptosis model assessed as decrease in lipid ROS accumulation at 0.01 to 1 uM incubated for 8 to 24 hrs by BODIPY 581/591 C11 staining based flow cytometric analysis; assay type: functional; settings: dose 0.01-1 µM, time 8-24 hrs
HT-1080 [14] = assay: Antioxidant activity in erastin-induced human HT-1080 cell ferroptosis model assessed as decrease in cytosolic ROS accumulation at 0.01 to 1 uM incubated for 8 to 24 hrs by DCFH-DA staining based assay; assay type: functional; settings: dose 0.01-1 µM, time 8-24 hrs
THP-1 = assay: Protection against nigericin-induced pyroptosis in human THP-1 cells assessed as cell viability at 10 uM; assay type: functional, cell-based
Rattus norvegicus [15] = assay: Protective activity in Sprague-Dawley rat model of middle cerebral artery occlusion-induced ischemia-reperfusion injury assessed as restoration of walking ability at 5 mg/kg, iv measured after 24 hrs of post reperfusion […]; assay type: functional, organism-based
[16] = biological target: Histamine H1 receptor (Homo sapiens) (UniProt P35367); assay: Antagonist activity at H1 (unknown origin) by FLIPR assay
HT-1080 [17] = assay: Inhibition of LOX expression in erastin-induced human HT-1080 cell ferroptosis model at 0.01 to 1 uM after 10 hrs by Western blot analysis; assay type: functional; settings: dose 0.01-1 µM
[18] = Antioxidant activity assessed as DPPH radical scavenging activity at 0.05 mM incubated for 10 mins; assay type: functional
HT-1080 [19] = assay: Antioxidant activity in erastin-induced human HT-1080 cell ferroptosis model assessed as decrease in lipid ROS accumulation at 0.01 to 1 uM incubated for 8 to 24 hrs by BODIPY 581/591 C11 staining based flow cytometric analysis; assay type: functional; settings: dose 0.01-1 µM, time 8-24 hrs
HT-1080 [20] = assay: Inhibition of ERK expression in erastin-induced human HT-1080 cell ferroptosis model at 0.01 to 1 uM after 10 hrs by Western blot analysis; assay type: functional; settings: dose 0.01-1 µM
[21] = biological target: 5-hydroxytryptamine receptor 2A (Homo sapiens) (UniProt P28223); assay: Antagonist activity at HTR2A (unknown origin) by FLIPR assay
HT-1080 [22] = assay: Inhibition of H2O2-induced oxidative cell death in human HT-1080 cells at 10 uM incubated for 24 hrs; assay type: functional, cell-based
[23] = biological target: T2, Alpha-1A adrenergic receptor (Homo sapiens) (UniProt P35348); assay: Antagonist activity at ADRA1A (unknown origin) by FLIPR assay
T2 sequence (whole entry): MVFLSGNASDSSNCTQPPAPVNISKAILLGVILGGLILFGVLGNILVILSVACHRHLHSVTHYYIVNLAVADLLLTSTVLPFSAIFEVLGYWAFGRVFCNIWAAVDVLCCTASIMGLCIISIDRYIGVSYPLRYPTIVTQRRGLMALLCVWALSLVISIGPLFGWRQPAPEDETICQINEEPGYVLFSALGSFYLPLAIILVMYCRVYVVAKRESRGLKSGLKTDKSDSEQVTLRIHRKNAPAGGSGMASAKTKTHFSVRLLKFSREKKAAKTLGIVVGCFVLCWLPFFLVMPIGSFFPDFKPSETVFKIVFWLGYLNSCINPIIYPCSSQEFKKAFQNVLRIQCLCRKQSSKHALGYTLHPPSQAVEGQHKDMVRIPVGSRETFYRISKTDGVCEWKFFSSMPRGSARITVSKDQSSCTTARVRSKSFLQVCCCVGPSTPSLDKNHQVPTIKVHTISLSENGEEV

[24] = biological target: D(2) dopamine receptor (Homo sapiens) (UniProt P14416); assay: Antagonist activity at DRD2L (unknown origin) by FLIPR assay
[25] = Metal chelating activity assessed as iron chelation

5-hydroxytryptamine receptor 2A (Homo sapiens), sequence (P28223 whole entry): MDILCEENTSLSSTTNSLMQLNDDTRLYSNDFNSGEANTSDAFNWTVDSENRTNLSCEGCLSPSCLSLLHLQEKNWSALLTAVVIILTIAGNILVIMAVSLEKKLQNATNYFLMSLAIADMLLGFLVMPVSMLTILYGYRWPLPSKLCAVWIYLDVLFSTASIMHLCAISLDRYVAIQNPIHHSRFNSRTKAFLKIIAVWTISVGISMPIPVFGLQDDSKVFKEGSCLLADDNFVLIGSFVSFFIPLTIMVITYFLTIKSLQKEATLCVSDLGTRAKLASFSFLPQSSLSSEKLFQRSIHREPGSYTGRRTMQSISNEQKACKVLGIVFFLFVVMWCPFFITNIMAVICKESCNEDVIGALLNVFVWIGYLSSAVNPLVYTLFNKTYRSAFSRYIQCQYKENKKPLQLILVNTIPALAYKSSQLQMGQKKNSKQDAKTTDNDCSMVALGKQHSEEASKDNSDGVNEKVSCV
D(2) dopamine receptor (Homo sapiens), sequence (P14416 whole entry): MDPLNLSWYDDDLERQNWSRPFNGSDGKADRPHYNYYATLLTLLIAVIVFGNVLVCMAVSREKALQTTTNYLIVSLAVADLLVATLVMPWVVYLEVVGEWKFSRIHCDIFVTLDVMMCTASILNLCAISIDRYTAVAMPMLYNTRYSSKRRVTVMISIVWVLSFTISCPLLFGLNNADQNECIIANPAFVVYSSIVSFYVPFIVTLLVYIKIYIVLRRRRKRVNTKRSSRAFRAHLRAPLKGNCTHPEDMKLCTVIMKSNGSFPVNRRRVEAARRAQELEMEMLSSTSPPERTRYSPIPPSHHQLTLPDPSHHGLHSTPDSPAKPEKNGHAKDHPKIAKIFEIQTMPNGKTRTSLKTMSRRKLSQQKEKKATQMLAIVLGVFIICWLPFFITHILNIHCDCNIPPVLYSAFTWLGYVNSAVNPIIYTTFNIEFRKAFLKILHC
Indoleamine 2,3-dioxygenase 1, sequence (P14902 whole entry): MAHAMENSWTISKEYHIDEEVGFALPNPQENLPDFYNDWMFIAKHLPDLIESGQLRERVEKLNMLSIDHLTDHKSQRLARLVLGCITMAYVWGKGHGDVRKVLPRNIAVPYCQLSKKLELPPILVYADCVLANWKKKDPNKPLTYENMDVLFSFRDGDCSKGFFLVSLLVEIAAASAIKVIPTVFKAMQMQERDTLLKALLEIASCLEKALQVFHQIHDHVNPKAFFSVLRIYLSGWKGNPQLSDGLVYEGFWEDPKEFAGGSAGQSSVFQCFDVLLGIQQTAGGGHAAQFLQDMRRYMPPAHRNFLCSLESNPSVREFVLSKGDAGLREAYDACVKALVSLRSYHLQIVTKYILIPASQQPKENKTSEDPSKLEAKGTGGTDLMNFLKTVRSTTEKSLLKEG
Muscarinic acetylcholine receptor M3 (Homo sapiens), sequence (P20309 whole entry, looked up): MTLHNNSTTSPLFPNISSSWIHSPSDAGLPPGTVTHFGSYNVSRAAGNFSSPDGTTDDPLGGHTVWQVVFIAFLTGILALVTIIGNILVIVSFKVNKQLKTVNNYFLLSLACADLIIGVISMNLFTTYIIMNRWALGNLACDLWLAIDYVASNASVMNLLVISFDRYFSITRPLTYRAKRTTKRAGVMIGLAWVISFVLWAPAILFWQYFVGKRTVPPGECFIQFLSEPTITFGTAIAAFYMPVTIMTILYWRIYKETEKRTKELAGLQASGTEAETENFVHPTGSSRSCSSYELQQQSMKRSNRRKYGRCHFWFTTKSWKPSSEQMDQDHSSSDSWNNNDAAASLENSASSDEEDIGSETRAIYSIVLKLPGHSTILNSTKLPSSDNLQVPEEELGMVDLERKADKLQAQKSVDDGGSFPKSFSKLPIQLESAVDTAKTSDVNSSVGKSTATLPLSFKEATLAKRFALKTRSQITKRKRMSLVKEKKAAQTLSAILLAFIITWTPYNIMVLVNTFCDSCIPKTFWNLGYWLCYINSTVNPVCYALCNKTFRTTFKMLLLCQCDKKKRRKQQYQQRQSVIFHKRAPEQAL
Histamine H1 receptor (Homo sapiens), sequence (P35367 whole entry): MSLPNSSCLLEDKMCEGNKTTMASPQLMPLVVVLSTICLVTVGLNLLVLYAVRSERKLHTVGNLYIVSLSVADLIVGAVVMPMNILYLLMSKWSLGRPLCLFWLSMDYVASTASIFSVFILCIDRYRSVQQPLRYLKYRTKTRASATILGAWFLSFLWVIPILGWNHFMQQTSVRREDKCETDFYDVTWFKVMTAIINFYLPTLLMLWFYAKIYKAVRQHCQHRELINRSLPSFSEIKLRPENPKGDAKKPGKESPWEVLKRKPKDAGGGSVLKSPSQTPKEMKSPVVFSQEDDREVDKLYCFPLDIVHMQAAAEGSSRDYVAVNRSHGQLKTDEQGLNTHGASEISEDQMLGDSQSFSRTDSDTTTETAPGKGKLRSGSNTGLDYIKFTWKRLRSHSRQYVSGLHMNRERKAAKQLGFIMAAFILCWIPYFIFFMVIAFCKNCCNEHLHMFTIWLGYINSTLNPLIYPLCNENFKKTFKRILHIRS

In the case of `CC(c1ccc(N2CCN(C)CC2)cc1)c1ccc2c(c1)Nc1ccccc1S2` (configuration not stated), the Activity [1] is reported as “inactive”, the EC50 (Calu-1 [2]) is reported as 1.88 nM and the IC50 [3] is reported as over 10000 nM. For the same compound, the Activity (HT-1080 [4]) was “Active”, the IC50 [5] was over 10000 nM and the Activity (HT-1080 [6]) was “inactive”. The Activity [7] was “inactive”, the EC50 (BXPC-3) was 2.92 nM and the Activity (Calu-1 [8]) was “Active”. For the same compound, the Activity (Rattus norvegicus [9]) was “Active”, the Activity (Rattus norvegicus [10]) was “Active” and the Activity (HT-1080 [11]) was “inactive”. For the same compound, the Activity (Rattus norvegicus [12]) was “Active”, the Activity (Calu-1 [13]) was “Active” and the Activity (HT-1080 [14]) was “Active”. For the same compound, the Activity (THP-1) was “inactive”, the Activity (Rattus norvegicus [15]) was “Active” and the Activity [16] was “inactive”. For the same compound, the inhibition (HT-1080 [17]) was “inactive”, the Activity [18] was “Active” and the Activity (HT-1080 [19]) was “Active”. The inhibition (HT-1080 [20]) was “inactive”, the Activity [21] was “inactive” and the Activity (HT-1080 [22]) was “inactive”. For the same compound, the Activity [23] was “inactive”, the Activity [24] was “inactive” and the Activity [25] was “inactive”.
